According to US8148380B2, “Antibacterial amide and sulfonamide substituted heterocyclic urea compounds” (priority 2007, dated 2012):
Converted amounts (≈) assume the structure as drawn.

Experiments:
Assay type in all cases: cell-based
[1] = system: S. aureus, E. faecalis, E. faecium, S. pyogenes, S. epidermidis and S. pneumoniae; assay: Bactericidal activity
Method: (§1) Compounds of the present invention were tested for antibacterial activity against a variety of pathogenic organisms including S. aureus, S. pneumoniae, S. pyogenes, E. faecalis, H. influenza and M. catarrhalis using a standard broth microdilution method to determine their minimum inhibitory concentrations (MICs). All compounds were tested using standard methods in accordance with CLSI guidelines (Clinical and Laboratory Standards Institute). Compounds described in Examples 1, 3-6, 8, 10-17, 19-21, 24-31, 33, 36, 38, 40, 54, 56-57, 59-71, 74-105, 107-108, 110-112, 114, 117-120, 122-142, 144-159, 162-179, 181-182, 184-225, 227-242, 244-319, 321-355, and 357-475 had MIC's of <0.12-4.0 μg/mL against some strains of the major Gram-positive organisms S. aureus, S. pneumoniae, S. pyogenes, and E. faecalis. […] Compounds described in Examples 11, 54, 60, and 208 shown to be bactericidal in S. aureus, E. faecalis, E. faecium, S. pyogenes, S. epidermidis and S. pneumoniae.

[2] = MIC against drug-resistant Gram-positive strains; conditions: read-out: MIC in clinically relevant resistant strains
Method: as §1
(§2) Compounds of the present invention were not compromised by existing resistance to all drug classes tested, including β-lactams, glycopeptides, oxazolidinones, macrolides, and fluoroquinolones. In particular, compounds described in Examples 11, 54, 60, and 208 were active against methicillin-(oxacillin-) resistant S. aureus (MRSA), vancomycin-intermediate S. aureus (VISA), linezolid-resistant S. aureus, methicillin-(oxacillin-) resistant and mupirocin resistant S. epidermidis, macrolide-resistant S. pyogenes, macrolide-, penicillin-, and levofloxacin-resistant S. pneumoniae, vancomycin-, macrolide-, and ciprofloxacin-resistant E. faecalis (VRE) and vancomycin-, macrolide-, and ciprofloxacin-resistant E. faecium.

[3] = system: MRSA, VISA, linezolid-resistant S. aureus, resistant S. epidermidis, S. pyogenes, S. pneumoniae, E. faecalis (VRE) and E. faecium; assay: MIC against drug-resistant Gram-positive strains; conditions: MRSA, VISA, linezolid-resistant S. aureus, resistant S. epidermidis, S. pyogenes, S. pneumoniae, E. faecalis (VRE), E. faecium
Method: as §1, §2

[4] = MIC90 against resistant Gram-positive bacteria
Method: as §1

Compound | bactericidal [1] | MIC [2] | activity against drug-resistant strains [3] | MIC90 [4]
Cc1noc(C)c1C(=O)N(C)Cc1csc(NC(=O)NCc2ccc(Cl)c(Cl)c2)n1 [Example 11, N-((2-(3-(3,4-dichlorobenzyl)ureido)thiazol-4-yl)methyl)-N,3,5-trimethylisoxazole-4-carboxamide] | bactericidal | 0.25 to 4 µg/mL (≈ 0.534 to 8.54 µM) | active | –
Cc1noc(C)c1C(=O)N(C)Cc1csc(NC(=O)NCc2cccc(F)c2)n1 [Example 54, N-((2-(3-(3-fluorobenzyl)ureido)thiazol-4-yl)methyl)-N,3,5-trimethylisoxazole-4-carboxamide] | bactericidal | 0.25 to 4 µg/mL (≈ 0.599 to 9.58 µM) | active | 1 to 4 µg/mL (≈ 2.4 to 9.58 µM)
CCc1noc(C)c1C(=O)N(C)Cc1csc(NC(=O)NCc2cccc(F)c2)n1 [Example 60, 3-ethyl-N-((2-(3-(3-fluorobenzyl)ureido)thiazol-4-yl)methyl)-N,5-dimethylisoxazole-4-carboxamide] | bactericidal | 0.25 to 4 µg/mL (≈ 0.579 to 9.27 µM) | active | 1 to 4 µg/mL (≈ 2.32 to 9.27 µM)
Cc1ncnc(C)c1C(=O)N(C)Cc1csc(NC(=O)NCc2cccc(F)c2)n1 [Example 96, N-((2-(3-(3-fluorobenzyl)ureido)thiazol-4-yl)methyl)-N,4,6-trimethylpyrimidine-5-carboxamide] | – | – | – | 1 to 4 µg/mL (≈ 2.33 to 9.34 µM)
Cc1noc(C)c1C(=O)N(C)Cc1csc(NC(=O)NCc2ccc(Cl)s2)n1 [Example 107, N-((2-(3-((5-chlorothiophen-2-yl)methyl)ureido)thiazol-4-yl)methyl)-N,3,5-trimethylisoxazole-4-carboxamide] | – | – | – | 1 to 4 µg/mL (≈ 2.27 to 9.09 µM)
CN(Cc1csc(NC(=O)NCc2cccc(F)c2)n1)C(=O)c1cc(O)nnc1Cl [Example 208, 3-Chloro-6-hydroxy-pyridazine-4-carboxylic acid {2-[3-(3-fluoro-benzyl)-ureido]-thiazol-4-ylmethyl}-methyl-amide] | bactericidal | 0.25 to 4 µg/mL (≈ 0.554 to 8.87 µM) | active | 1 to 4 µg/mL (≈ 2.22 to 8.87 µM)
Cc1noc(C)c1C(=O)N(C)C(C#N)c1csc(NC(=O)NCc2cccc(F)c2)n1 (stereo not drawn) [Example 214, 3,5-Dimethyl-isoxazole-4-carboxylic acid (cyano-{2-[3-(3-fluoro-benzyl)-ureido]-thiazol-4-yl}-methyl)-methyl-amide] | – | – | – | 1 to 4 µg/mL (≈ 2.26 to 9.04 µM)
